From patent US6573050B1, “Treatment, diagnosis and evaluation of anti-cancer therapy resistance in melanoma” (Sunnybrook & Women's College Health Sciences Centre, priority 1999, dated 2003)
Like-named read-outs stand apart in the source and are kept apart here.

What was measured:
[1] = system: Clone E and Clone G cells vs WM35 cells
Description: (§8) Cytotoxicity Assay. The number of viable cells following a treatment was assessed using the CellTiter™ 96 Aqueous Non-Radioactive MTS Cell Proliferation Assay (Promega). Briefly, 1×10^4 cells/well were plated in 96-well plates, allowed to attach overnight and then administered therapeutic agents at various levels for 24 hours. Four hours prior to harvest, MTS/phenazine methosulfate was added to the cells and the number of variable cells was determined by measuring the quantity of formazan by spectrophotometric analysis at 490 nm.
(§9) The indicated cell lines were cultured in 96 well plates at a density of 8×10^3 cells per well and treated for 24 hours with either A) carboplatin; B) taxol; or C) methotrexate, at the indicated concentrations. Cell viabilities were determined using the MTS assay (Promega), measuring the cellular conversion of the tetrazolium salt, MTS, into formula which can be quantified at 490 nm.

WM35 cells [2] = test: MTS cytotoxicity assay, CDDP treatment; format: cell-based, human; conditions: 15 μM CDDP, 24 hour incubation, mean ± SEM, n=3
Description: (§1) Cells and Culture Conditions. All human melanoma cell lines were generously provided by Dr. Meenhard Herlyn (Wistar Institute, Philadelphia, Pa.). The CDDP-resistant variants of WM35 (designated as Clone A to Clone I) were established by retroviral insertioual mutagenesis of WM35 cells as described previously (Lu et al. (1995) Cancer Res. 55:1139-1145). Cells were routinely maintained in RPMI 1640 (Life Technologies) supplement with 5% FBS (Life Technologies) at 37° C. in a humidified atmosphere of 95% air; 5% CO2.
(§2) To determine the correlation between levels of TYRP2 expression and CDDP resistance, the cells assessed in the UV(B) survival assay as shown in Table 2 were further assessed for resistance to CDDP. Cells were plated in 96-well plates and treated with 15 μM CDDP. After a 24 hour incubation, cell viability was determined by the MTS assay.

[3] = system: Clone E cells (CDDP-resistant variant of WM35); test: MTS cytotoxicity assay, CDDP treatment; format: cell-based, human; conditions: 15 μM CDDP
Description: as §1
(§3) FIG. 9 illustrates the response of melanoma cell lines to CDDP treatment. Each of the cell lines indicated were plated in 96-well plates at a density of 1×10^5 cells/well and treated with 15 μM CDDP for 24 hours. Percentage of viable cells were determined by the MTS assay. […] The levels TYRP2 expression in these cells directly correlated with their resistance to CDDP treatment (15 μM CDDP, 24 hours). For example, the cell line WM9, which expresses very low levels of TYRP2 was very sensitive to CDDP treatment (<20% of cells survived). Conversely, the cell lines WM451 and MeWo, for example, which express high levels of TYRP2 were resistant to CDDP treatment (approximately 80% of cells survived).
as §2

MeWo cells = test: MTS cytotoxicity assay, CDDP treatment; format: cell-based, human; conditions: 15 μM CDDP
Description: as §1, §3, §2

WM9 cells = test: MTS cytotoxicity assay, CDDP treatment; format: cell-based, human; conditions: 15 μM CDDP
Description: as §1, §3, §2

[4] = system: XR9 cells (x-ray resistant variant of WM35); test: MTS cytotoxicity assay, CDDP treatment; format: cell-based, human; conditions: 15 μM CDDP, 24 hour incubation, mean ± SEM, n=3
Description: Gamma radiation resistant mutant cell lines were selected using retroviral insertional mutagenesis, with selection based on resistance to gamma radition. X-ray resistant mutant cell lines, designated as “XR” were established.
as §2

1552C cells = test: MTS cytotoxicity assay, CDDP treatment; format: cell-based, human; conditions: 15 μM CDDP, 24 hours, MTS assay (FIG. 9)
Description: as §1, §3

WM1341B cells = test: MTS cytotoxicity assay, CDDP treatment; format: cell-based, human; conditions: 15 μM CDDP, 24 hours, MTS assay (FIG. 9)
Description: as §1, §3

WM373 cells = test: MTS cytotoxicity assay, CDDP treatment; format: cell-based, human; conditions: 15 μM CDDP, 24 hours, MTS assay (FIG. 9)
Description: as §1, §3

WM451 cells = test: MTS cytotoxicity assay, CDDP treatment; format: cell-based, human; conditions: 15 μM CDDP, 24 hours, MTS assay (FIG. 9)
Description: as §1, §3

[5] = system: Clone E and Clone G cells vs WM35 cells; test: CDDP resistance of retrovirally derived clones compared to parental WM35; format: cell-based, human; conditions: approximately
Description: as §1
This technique of retroviral insertional mutagenesis was applied on WM35 cells, an early stage CDDP sensitive human melanoma cell line. WM35 cells were infected with a replication defective amphotrophic murine stein cell virus (MSCV) retrovirus and the pooled cells were subsequently selected for CDDP resistance.
From this technique, nine independently derived clones, Clone A to Clone I, were obtained. […] Since changes in tumor sensitivities in the range of 2-5 fold can account for loss of tumor responsiveness to anti-cancer therapeutic drugs, this difference could be clinically significant (Kuroda et al. (1991) Int. J. Cancer 47:732-737).

Clone E cells = test: PARP cleavage, Western blot (apoptosis); format: cell-based, human; conditions: 15 μM CDDP, up to 24 hours
Description: (§4) SDS-PAGE and Western Blot Analysis. Cell lysates were prepared using lysis buffer consisting of 50 mM Tris, pH 7.4, 50 mM NaCl, 2 mM MgCl2, 1 mM EDTA, 05% IDEPAL CA-630 and protease inhibitors (0.1 mM PMSF, 100 μM sodium vanadate, 20 μg/ml leupeptin, 20 mM […], 1 mM benzamide). Protein concentrations were determined by the Bradford assay (BioRad Laboratories) and equivalent quantities of protein (25 μg) were resolved by SDS-polyacrylamide gel electrophoresis (Laemmli (1970) Nature, 227, 680-685). […] Membranes were then incubated with a horseradish-peroxidase conjugated goat anti-rabbit antibody (1:5000 dilution) and immunoreactive sites were detected by enhanced chemiluminescence (Amersham). […]
(§5) The mechanism of action of CDDP, as well as other DNA alkylating agents ultimately involves generation of DNA damage and subsequently the induction of apoptosis. In order to determine if the increased resistance to CDDP in the retrovirally derived clones was associated with a reduction in CDDP-induced apoptosis, the levels of apoptosis in one of these clones (Clone E) relative to its parental WM35 cells were determined following treatment with 15 μM CDDP.
(§6) Increased cleavage of poly-ADP-ribose-polymerase (PARP) from the 116 kDa to the smaller 84 kDa subunit in WM35 cells was detected as early as 6 bours following 15 μM CDDP treatment. […]

WM35 cells [6] = test: PARP cleavage, Western blot (apoptosis); format: cell-based, human; conditions: 15 μM CDDP, as early as
Description: as §4, §5, §6

[7] = system: WM35 cells vs Clone E cells; test: DNA fragmentation assay, Cell Death Detection ELISA; format: cell-based, human; conditions: 15 μM CDDP, 18 hours
Description: DNA Fragmentation Assay. Levels of apoptosis were determined by quantifying DNA fragmentation using the Cell Death Detection ELISA Plus kit (Boehringer Mannheim). Briefly, cells were plated in 96-well plates at a density of 1×10^4 cells/well and allowed to attach overnight. Cells were treated with 15 μM CDDP for 18 hours and then lysed. Cell lysates were transferred to streptavidin-coated plates and used for ELISA analysis using anti-bistone-biotin and anti-DNA POD antibodies.
FIG. 2 illustrates DNA fragmentation analysis by ELISA using antibodies that recognize mono- and oligonucleotide fragments. Mono- and oligo-nucleosomes in the DNA of WM35 cells treated with 15 μM CDDP for 18 hours, were detected with a Cell Death ELISA Detection Kit (Boehringer Mannheim). The production of DNA 180 bp multimers was approximately 5 times greater in WM35 cells than in Clone E cells.

MeWo derived tumors = test: MeWo tumors in immunodeficient CD-1 nude mice, CDDP treatment; format: in vivo; conditions: CDDP 2 mg/kg/2 days
Description: (§7) In order to determine the significance of TYRP2-mediated CDDP resistance in vivo, tumors were generated in immunodeficient CD-1 mice by subcutaneous injection of 2×10^6 cells of either MeWo or WM9. WM35 cells were not used for in vivo studies because they lack tumorigenicity (Bani et al. (1996) Cancer Res. 56:3075-3086). […] Mice bearing these tumors were treated with CDDP three times weekly at a dose of 2 mg/kg.
FIG. 12 illustrates the correlation between TYRP2 expression and CDDP resistance in vivo. Tumors were generated in immunodeficient CD-1 nude mice by subdermally injecting MeWo cells.

WM9 derived tumors = test: WM9 tumors in immunodeficient CD-1 nude mice, CDDP treatment; format: in vivo; conditions: CDDP 2 mg/kg/2 days
Description: as §7
FIG. 13 illustrates the correlation between TYRP2 expression and CDDP resistance in vivo in WM9 cells. Tumors were generated in immunodeficient CD-1 nude mice by subdermally injecting WM9 cells. […] By day 18 of treatment, the tumors in 2 of 5 mice had completely disappeared.

[8] = system: Clone E and Clone G cells vs WM35 cells; test: Cross resistance of CDDP-resistant clones, MTS assay; conditions: 24 hours treatment, various concentrations, MTS assay (FIG. 3)
Description: as §8, §9

[9] = 24 hour incubation, MTS assay, mean ± SEM, n=3

## CN(Cc1cnc2nc(N)nc(N)c2n1)c1ccc(C(=O)N[C@@H](CCC(=O)O)C(=O)O)cc1 [methotrexate]
[1]
  resistance of Clone E and Clone G to cytotoxic effects compared to WM35 cells: more resistant

## CC(=O)O[C@H]1C(=O)[C@@]2(C)[C@H]([C@H](OC(=O)c3ccccc3)[C@]3(O)C[C@H](OC(=O)[C@H](O)[C@@H](NC(=O)c4ccccc4)c4ccccc4)C(C)=C1C3(C)C)[C@]1(OC(C)=O)CO[C@@H]1C[C@@H]2O [taxol]
[1]
  resistance of Clone E and Clone G to cytotoxic effects compared to WM35 cells: equally sensitive

## N.N.[Cl][Pt][Cl] [CDDP, cis-diamminedichloroplatinum(II)]
WM35 cells [2]
  % Survival: 52.6 ± 4.4%
[3]; [9]
  % Survival: 77.4 ± 6.7%
[3]; 24 hours, MTS assay (FIG. 9)
  survival compared to WM35 cells: substantially higher survival
MeWo cells; [9]
  % Survival: 77.0 ± 5.3%
MeWo cells; 24 hours, MTS assay (FIG. 9)
  % of cells survived: approximately 80%
WM9 cells; [9]
  % Survival: 13.8 ± 1.6%
WM9 cells; 24 hours, MTS assay (FIG. 9)
  % of cells survived: < 20%
[4]
  % Survival: 82.4 ± 1.7%
1552C cells
  sensitivity to CDDP treatment: highly sensitive
WM1341B cells
  survival compared to WM35 cells: substantially higher survival
WM373 cells
  survival compared to WM35 cells: substantially higher survival
WM451 cells
  % of cells survived: approximately 80%
[5]
  increase in CDDP resistance compared to parental WM35 cells: 2 to 3 fold
Clone E cells
  increased levels of PARP cleavage: not evident
WM35 cells [6]
  time at which increased PARP cleavage (116 kDa to 84 kDa subunit) was detected: 6 bours
[7]
  production of DNA 180 bp multimers, WM35 cells relative to Clone E cells: approximately 5 times
MeWo derived tumors
  growth rates of tumors, CDDP treated vs saline treated mice: did not differ
WM9 derived tumors
  growth rates of tumors relative to saline treated controls: significant reduction in growth rates
WM9 derived tumors; by day 18 of treatment
  mice whose tumors had completely disappeared: 2 of 5

## N.N.O=C([O-])C1(C(=O)[O-])CCC1.[Pt+2] [carboplatin]
[8]
  resistance of Clone E and Clone G to cytotoxic effects compared to WM35 cells: more resistant
